Measurements reported in US10183955B2, “Molecules for isolation of polyribosomes, ribosomes, uses and kits thereof” (Immagina Biotechnology S.r.l., priority 2015, dated 2019).

Experiments:
[1] = tested on: IVTT euk-mix; assay: EGFP expression in IVTT euk-mix, Western blot; assay type: biochemical; details: 1 hour, 30° C., 2 μg plasmid, 50 μL IVTT euk-mix
Procedure: FIG. 10. Expression of the firefly luciferase and the Enhanced Green Fluorescent Protein (EGFP) in the presence of 3P. (a, top), Effect of 3P on luciferase protein expression. ε-Labeled biotinylated lysine-tRNAs is used to monitor the protein production by SDS-PAGE. (a, bottom), Histogram representing the relative quantification (density fold change) of the bands reported in the western blot (up), respect to the control (input, reaction mix without 3P). Reactions are carried out in a final volume of 50 μL of IVTT euk-mix. Error bars represent s.d. calculated from a duplicate experiment; (b, top-left), Scheme of the plasmid used for EGFP expression. Restriction sites used to clone the gene are reported. (b, top-right) The effect of 3P on EGFP expression monitored by Western Blot analysis. Reactions are performed in a final volume of 50 μL of IVTT euk-mix (up) or IVTT pro-mix (down). (b, bottom). Effect of 3P and 3PP on EGFP expression in a IVTT euk-mix.
FIG. 15. Isolation of actively translated GFP transcripts after in vitro expression of EGFP protein. (a, left) The two plasmids used for EGFP expression (pBluescript II KS+, Genscript; pPR-IBA2, IBA, #2-1391-000). […] The relative abundance is reported as 2^(39-Cq), where 39 are the number of cycles and Cq is the quantification cycle. […]

[2] = tested on: in vitro-cell free translation system (IVTT euk-mix); assay: In vitro cell-free expression of firefly luciferase (IVTT euk-mix), SDS-PAGE and luminescence; assay type: biochemical
Procedure: FIG. 9. Effect of 3P and puromycin on in vitro-cell free expression of the luciferase gene. Luciferase protein production in the presence of different concentrations of puromycin and 3P (left panel). The firefly luciferase is expressed in vitro (90 min) adding z-labeled biotinylated lysine-tRNAs to the reaction. After incubation with streptavidin-HRP, the protein is visualized by chemiluminescence.
To date, no structural data are available for puromycin binding in complex with the eukaryotic ribosome, while the bonding of a puromycin derivative in bacterial ribosome is well described^49. […] In particular, we tested the effect of 3P on an in vitro-cell free translation system (hereinafter called “IVTT euk-mix”: TNT Quick coupled Transcription/Translation System, Promega #L2881) using a firefly luciferase gene (Promega #L4741). […] After 90 minutes of incubation, we monitored the protein production by SDS-PAGE and luminescence assay (FIG. 9). […]
The luciferase translation efficiency was monitored by means of luminescence signal using the Bright-Glo™ Luciferase Assay System (Promega, E2610) and the Infinite 200 PRO reader (Tecan), according to the manufacturer's instruction. […]

Row | Structure (SMILES) | effect on EGFP expression (free in solution) [1] | b of best fit y=A*exp(−x/b) of luciferase expression as a function of concentration (A=100) ([2]; concentrations 0, 0.01, 0.1, 1, 10 μM, n=3) | protein synthesis upon titration ([2]; firefly luciferase, 90 minutes, 0-10 μM)
1 | COC(=O)C[C@](O)(CCC(C)(C)O)C(=O)O[C@@H]1C(OC)=C[C@]23CCCN2CCc2cc4c(cc2[C@H]13)OCO4 [harringtonine] | inhibitory effect |  | 
2 | COc1ccc(C[C@H](N)C(=O)N[C@H]2[C@@H](O)[C@H](n3cnc4c(N(C)C)ncnc43)O[C@@H]2CO)cc1 [puromycin] |  | 0.020±0.003 | exponential decay of the protein synthesis
